Source: patent publication US20230210838A1, “METHODS FOR TREATING CANCER OR VON-HIPPEL LINDAU DISEASE USING A COMBINATION OF A HIF-2 ALPHA INHIBITOR AND LENVATINIB” (Merck Sharp & Dohme LLC, priority 2020, published 2023)
Values joined by “and” are separate entries in the source; they are usually repeats but may differ in a detail not shown here. Equal values may be shown once.

Assays:
[1] = system: UMRC2 human VHL-deficient renal cell carcinoma xenograft; test: VHL-deficient renal cell carcinoma xenograft tumor model; assay type: in vivo; conditions: for anti-tumor activity compared to the vehicle control group: Day 34, one-way ANOVA with Tukey's multiple comparisons; for Final CRs: complete tumor regressions at end of study; for Final CRs / Final PRs: 10 mice per group; for Final PRs: partial tumor regressions at end of study; for TGI: respective to Vehicle-treated animals at Day 34, MK-6482 3 mg/kg BID oral, Lenvatinib 10 mg/kg QD oral
Method: Prior to treatment initiation, female SCID Beige mice aged 7 weeks weighing between 18 to 21 grams were anesthetized and inoculated subcutaneously on the rear flank with single cell suspension of approximately 95% viable log-phase sub-confluent UMRC2 (5.0×10^6) cells in 0.1 mL of serum-free Dulbecco's Modified Eagle Medium (DMEM) to initiate tumor development. Treatment was initiated when the mean tumor volume of inoculated animals reached approximately 205 mm^3. Mice were pair-matched into 4 treatment groups consisting of 10 mice per group. Treatment groups consisted of: 1) 0.5% methylcellulose+0.5% Tween 80 (Vehicle); 2) MK-6482; 3) Lenvatinib; 4) MK-6482+Lenvatinib. Vehicle and MK-6482 were orally gavage-dosed twice daily (BID) at 3 mg/kg body weight. Lenvatinib was orally dosed once daily (QD) at 10 mg/kg body weight. Treatment began on Day 0 and completed on Day 34. —Caliper measurements of tumors and body weights were captured twice weekly. Statistical analysis was performed by one-way ANOVA with Tukey's multiple comparisons tests at the end of the study, Day 34.
CRs were defined as no observable tumor whereas PRs were tumors whose volume was lower than the original tumor size when treatment began.

advanced RCC = test: FIH Phase 1 study, best response by RECIST v1.1 in previously treated advanced RCC; assay type: in vivo, human; conditions: 120 mg QD, 55 participants with previously treated advanced RCC
Method: A FIH Phase 1 study designed to assess the tolerability, safety, PK, and PD properties of MK-6482 in participants with various advanced solid tumors is ongoing. As of 6 Sep. 2019 a total of 104 participants had been enrolled, including 43 participants with various advanced solid tumors in the dose-escalation portion (Part 1A) ranging from 20 to 240 mg QD and 120 mg BID. The MTD was not reached and 2 treatment-related DLTs were observed: 1 Grade 4 event of thrombocytopenia in the 240 mg QD cohort, and 1 Grade 3 event of hypoxia in the 120 mg BID cohort. The 120 mg QD dose was selected for further clinical development based on favorable PK, pharmacodynamic, and safety findings. 52 additional participants with advanced RCC were treated in an expansion cohort (Part 1B) at the clinical dose of 120 mg QD. […] In total, 55 participants with previously treated advanced RCC have been treated in this study with MK-6482 at 120 mg QD (3 patients in the dose-escalation portion of the study and 52 participants in the dose expansion portion of the study). Best response among these 55 participants included 11 participants (20%) with PR and 32 participants (58%) with SD as assessed by RECIST v1.1.

[2] = Phase 1 cross-over study of the effect of food on the PK of MK-6482 in healthy volunteers; assay type: in vivo, human; conditions: single dose 120 mg, healthy female adult volunteers
[3] = Phase 2 open-label efficacy and safety study in VHL disease associated RCC; assay type: in vivo, human; conditions: 120 mg QD, 61 participants with VHL disease associated RCC
Description: A Phase 2, open-label efficacy and safety study in participants with VHL disease associated RCC is ongoing. As of 6 Sep.

[4] = FIH Phase 1 study of tolerability, safety, PK of MK-6482 in participants with advanced solid tumors; assay type: in vivo, human
Method: As of 6 Sep. […] 52 additional participants with advanced RCC were treated in an expansion cohort (Part 1B) at the clinical dose of 120 mg QD.

[5] = combined dose escalation and expansion cohorts

## COc1cc2nccc(Oc3ccc(NC(=O)NC4CC4)c(Cl)c3)c2cc1C(N)=O [Lenvatinib, 4-[3-chloro-4-(cyclopropylaminocarbonyl)aminophenoxy]-7-methoxy-6-quinolinecarboxamide]
[1]
  anti-tumor activity compared to the vehicle control group: significant anti-tumor activity
  Final CRs: 0/10 PRs, 0/10 CRs
  Final PRs: 0/10 PRs, 0/10 CRs
  TGI: 83%

## CS(=O)(=O)c1ccc(Oc2cc(F)cc(C#N)c2)c2c1[C@H](O)[C@H](F)[C@@H]2F [MK-6482, 3-[(1S,2S,3R)-2,3-difluoro-1-hydroxy-7-methylsulfonyl-indan-4-yl]oxy-5-fluoro-benzonitrile]
Advanced RCC
  best response PR, number of participants: 11 participants
  best response PR, share of participants: 20%
  best response SD, number of participants: 32 participants
  best response SD, share of participants: 58%
[1]
  anti-tumor activity compared to the vehicle control group: significant anti-tumor activity
  Final CRs: 0/10
  Final PRs: 1/10
  TGI: 51%
[2]
  delay of time to peak MK-6482 exposure, median difference (Fed—Fasted): 2 h
  most common adverse event (headache), incidence: 12.5%
[2]; fed vs fasted
  effect of high fat, high calorie meal on extent of MK-6482 exposure: did not affect
  lowering of maximum plasma MK-6482 concentration by high fat, high calorie meal: approximately 35%
[3]
  most common AE of ≥Grade 3 toxicity (fatigue), share of participants: ≥ 5%
[4]; 120 mg QD expansion cohort (Part 1B)
  accumulation from Day 1 to Day 15: 1.5 fold
[4]; 1 Grade 4 thrombocytopenia in 240 mg QD cohort, 1 Grade 3 hypoxia in 120 mg BID cohort
  treatment-related DLTs observed (number): 2
[4]; [5]
  most common AEs (anemia, fatigue, dyspnea, nausea, peripheral edema), share of participants: ≥ 20%
  most common Grade 3 AEs (anemia and hypoxia), share of participants: ≥ 5%
[4]; dose escalation (Part 1A) 20 to 240 mg QD and 120 mg BID
  MTD: not reached
[4]; human, in vivo, 120 mg QD expansion cohort (Part 1B), Day 15, read-out: mean steady state Cmax
  Cmax: 1790 ng/mL and 4.67 µM
[4]; human, in vivo, 120 mg QD expansion cohort (Part 1B), Day 15, read-out: mean steady state t1/2 (converted)
  half-life: 15.4 h
